{"source": "patent US20110171166A1", "about": "“POLYMER CONJUGATES OF O[…]” (Nektar Therapeutics, priority 2008, published 2011)", "origin": "cited, not measured here", "key": {"[1]": {"tested_on": "isolated pancreatic islets, a β cell line"}, "primary adipocytes": {"tested_on": "primary adipocytes", "details": "white and brown respectively"}, "WT mice": {"tested_on": "WT mice", "details": "long-term treatment; gold thioglucose-induced hyperphagia and high-fat diet"}}, "data": [{"substance": "osteocalcin", "values": [{"measurement": "amount sufficient to regulate the expression of the insulin genes and β cell proliferation markers", "setting": "[1]", "value": "picomolar amounts"}, {"measurement": "amount affecting adiponectin and Pgc1α expression in white and brown adipocytes", "setting": "primary adipocytes", "value": "nanomolar amounts"}, {"measurement": "effect on body mass and glucose metabolism", "setting": "WT mice", "value": "significantly weaken the deleterious effect on body mass and glucose metabolism"}]}]}
